# Results published in patent US10894948B2, “Resetting pluripotent stem cells” (CAMBRIDGE ENTERPRISE LIMITED, priority 2014, dated 2021).
# Key:
# HNES cells = assay: Colony formation of HNES cells in 2-deoxyglucose; format: cell-based, human; conditions: HNES cells versus HNES-primed cells
# Text: Primed PSC rely on anaerobic glycolysis with very low mitochondrial respiration capacity (Zhou et al., 2012). […] We evaluated the capacity of HNES cells to form colonies in the presence of the glycolysis inhibitor 2-deoxyglucose. […] HNES cells also stained intensely with MitoProbe™ DilC1, reflecting mitochondrial membrane potential (not shown).
# [1] = tested on: reset cells and conventional PSC; assay: Proliferation / colony formation in 2-deoxyglucose; format: cell-based, human; conditions: reset cells in contrast to conventional PSC, 7 days
# Protocol: C & D. Proliferation in 2-deoxyglucose. After single cell dissociation, 3×10^4 cells were seeded on 12 wells and cultured for 7 days with indicated concentrations of 2-deoxyglucose (2DG) or reduced glucose. ROCKi was added to conventional PSC.
# We examined functional consequences of altered metabolic properties by culture in 2-deoxyglucose to inhibit glycolysis and in reduced concentrations of glucose to increase dependency on mitochondrial respiration.
compound,measurement,setting,value
O=CC[C@@H](O)[C@H](O)[C@H](O)CO [2-deoxyglucose],colony formation in the presence of 2-deoxyglucose,HNES cells,Undifferentiated HNES cells readily formed colonies while HNES-primed cells did not survive
same,colony formation in the presence of 2-deoxyglucose,[1],reset cells formed undifferentiated colonies
